What was measured:
[1] = molecular target: T1, KRAS-G12D (Homo sapiens, UniProt P01116, G12D); assay: KRAS-G12D degradation assay (Western Blot), AsPc-1 cells; format: cell-based; details: for DC50: 24 h; for Dmax: ASPC1, 24 h
T1 construct: endogenous in cells; host or cells: A-427 (ATCC), AGS, AsPc-1, Panc 04.03
How it was run: (§1)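 Western blotting of lysates (5 μg protein) quantified KRAS against a β-actin reference after 24 h exposure to compound at final 0.03–3000 nM in 0.25% DMSO. Cells were A-427, AGS, AsPc-1 or Panc 04.03, all KRAS G12D, at 5×10^5/well. Degradation versus control yielded DC50 and Dmax.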

[2] = tested on: KRAS G12D mutant human gastric cancer cell AGS; assay: 3D cell proliferation inhibition assay, AGS; format: cell-based; details: 168 h, 7 days, CTG, numeric values
How it was run: (§2)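 Compound dilutions are added to low-adsorption wells, then cells at 5×10^2 cells/well. Final compound range is 10000–0.026 nM, with 0.2% DMSO. After 7 days at 37 °C with 5% CO2, CTG reagent is added and luminescence is read 60 min later. IC50 is fitted from inhibition relative to DMSO and medium controls.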

[3] = tested on: KRAS G12D mutant human metastatic pancreatic cancer cell AsPc-1; assay: 3D cell proliferation inhibition assay, AsPc-1; format: cell-based; details: ASPC1, 168 h, AsPc-1, 7 days, CTG, numeric values
How it was run: as §2

[4] = tested on: KRAS G12D mutant human pancreatic cancer cell Panc 04.03; assay: 3D cell proliferation inhibition assay, Panc 04.03; format: cell-based; details: 168 h, Panc 04.03, 7 days, CTG, numeric values
Source text: The inhibitory effects of the compounds on 3D cell proliferation were investigated on KRAS G12D mutant human lung cancer cell A427, KRAS G12D mutant human gastric cancer cell AGS, KRAS G12D mutant human metastatic pancreatic cancer cell AsPc-1, KRAS G12D mutant human pancreatic cancer cell Panc 04.03, KRAS G12D mutant human pancreatic cancer cell HPAC, KRAS G12V mutant human lung squamous cell carcinoma cell SW900, and KRAS WT human gastric cancer cell MKN1. The specific procedures were as follows:
10 μL of each compound solution diluted in a gradient was added to corresponding wells of a 96-well low-adsorption microplate (PerkinElmer), so that the final concentrations of the test compounds in the reaction system were in a range of 10000-0.026 nM. The final concentration of DMSO was 0.2%. Then 90 µL of cells were correspondingly seeded into each well to achieve a cell density of 5×10^2 cells/well (the cell density of SW900 was 5×10^1 cells/well, and the cell density of MKN1 was 1×10^3 cells/well). In addition to test wells for the test compounds, both a DMSO control well and a medium control well were set, with the DMSO control well containing DMSO and cells and the medium well containing only a medium. After the sample loading, the 96-well low-adsorption microplate was incubated in an incubator at 37° C. with 5% carbon dioxide for 7 days. After 7 days, the microplate was taken out, and 100 μL of CTG reagent (Promega) was added to each well. The plate was incubated at room temperature for 60 min and read on a microplate reader EnVision by the chemiluminescence program. The inhibition rates of the compounds at each concentration were calculated using the formula for the percentage inhibition of cell proliferation: inhibition rate %=(mean value of DMSO control group−single concentration reading value of compound)/(mean value of DMSO control group−mean value of medium control group)×100. Then non-linear curve fittings for logarithmic concentration-inhibition rate were performed by GraphPad Prism 8, and the IC50 values of the compounds were obtained (Table 5).

[5] = tested on: KRAS G12D mutant human pancreatic cancer cell HPAC; assay: 3D cell proliferation inhibition assay, HPAC; format: cell-based; details: 168 h, 7 days, CTG
How it was run: as §2

[6] = molecular target: T2, Human KRAS G12D 6His-tagged (Homo sapiens, UniProt P01116, G12D); assay: KRAS-G12D/GTP binding assay (HTRF); details: numeric values
T2 construct: purchased PerkinElmer
T2 sequence (P01116 1-188 isoform P01116-2 G12D): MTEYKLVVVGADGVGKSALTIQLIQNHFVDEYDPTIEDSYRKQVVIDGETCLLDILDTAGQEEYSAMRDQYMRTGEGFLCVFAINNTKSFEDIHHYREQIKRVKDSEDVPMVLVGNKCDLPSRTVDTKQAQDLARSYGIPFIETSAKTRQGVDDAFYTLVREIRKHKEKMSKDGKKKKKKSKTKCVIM
How it was run: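 Compounds at 0.02-5000 nM final (0.5% DMSO) were tested for blocking GTP Red tracer binding to His-tagged KRAS G12D, detected by Eu-cryptate anti-His antibody after 1 h, 25° C. Inhibition taken from 665/620 nm ratio relative to control, then fitted to give IC50.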

[7] = tested on: KRAS G12D mutant human lung cancer cell A427; assay: 3D cell proliferation inhibition assay, A427; format: cell-based; details: A-427, 168 h, A427, 7 days, CTG, numeric values
How it was run: as §2

[8] = molecular target: T1, KRAS-G12D; assay: KRAS-G12D degradation assay (Western Blot), A-427 cells; format: cell-based; details: A427 cells, 24 h, numeric values
How it was run: as §1

T1 sequence (P01116 1-188 isoform P01116-2 G12D): as above

SMILES	DC50 [1] [nM]	Dmax [1] [%]	IC50 [2] [nM]	IC50 [3] [nM]	IC50 [4] [nM]	IC50 [5] [nM]	IC50 [6] [nM]	IC50 [7] [nM]	DC50 [8] [nM]	Dmax ([8]; A-427) [%]
C#Cc1c(F)ccc2cc(O)cc(-c3ncc4c(N5CC6CCC(C5)N6)nc(OC[C@H](C)CN5CCN(CC6CCC7(CC6)CCN(C(=O)c6cc(N8CCC(=O)NC8=O)c(C)cc6F)CC7)CC5)nc4c3F)c12 [Example 173, 1-(5-(9-((4-((R)-3-((4-(3,8-diazabicyclo[3.2.1]octan-3-yl)-7-(8-ethynyl-7-fluoro-3-hydroxynaphthalen-1-yl)-8-fluoropyrido[4,3-d]pyrimidin-2-yl)oxy)-2-methylpropyl)piperazin-1-yl)methyl)-3-azaspiro[5.5]undecane-3-carbonyl)-4-fluoro-2-methylphenyl)dihydropyrimidine-2,4(1H,3H)-dione]	2.42	99	4.22	1.51	5.88	3.8	–	–	–	–
C#Cc1c(F)ccc2cc(O)cc(-c3ccc4c(N5CC6CCC(C5)N6)nc(OCC(C)CN5CCN(CC6CCC7(CC6)CCN(C(=O)c6ccc(C)c(N8CCC(=O)NC8=O)c6)CC7)CC5)nc4c3F)c12 (stereo not drawn) [Example 174, 1-(5-(9-((4-(3-((4-(3,8-diazabicyclo[3.2.1]octan-3-yl)-7-(8-ethynyl-7-fluoro-3-hydroxynaphthalen-1-yl)-8-fluoroquinazolin-2-yl)oxy)-2-methylpropyl)piperazin-1-yl)methyl)-3-azaspiro[5.5]undecane-3-carbonyl)-2-methylphenyl)dihydropyrimidine-2,4(1H,3H)-dione]	13.6	100	19.4	62.5	31.3	1.78	5.19	64.2	–	–
C#Cc1c(F)ccc2cc(O)cc(-c3ncc4c(N5CC6CCC(C5)N6)nc(OCC5(CN6CCN(CC7CCC8(CC7)CCN(C(=O)c7ccc(CC)c(N9CCC(=O)NC9=O)c7)CC8)CC6)CC5)nc4c3F)c12 [Example 243, 1-(5-(9-((4-((1-(((4-(3,8-diazabicyclo[3.2.1]octan-3-yl)-7-(8-ethynyl-7-fluoro-3-hydroxynaphthalen-1-yl)-8-fluoropyrido[4,3-d]pyrimidin-2-yl)oxy)methyl)cyclopropyl)methyl)piperazin-1-yl)methyl)-3-azaspiro[5.5]undecane-3-carbonyl)-2-ethylphenyl)dihydropyrimidine-2,4(1H,3H)-dione]	–	–	2.16	2.34	21.7	0.61	–	121	1.66	92.9
C#Cc1c(F)ccc2cc(O)cc(-c3ncc4c(N5CC6CCC(C5)N6)nc(OC[C@@H](CN5CCN(CC6CCC7(CC6)CCN(C(=O)c6ccc(OC)c(N8CCC(=O)NC8=O)c6)CC7)CC5)C(C)C)nc4c3F)c12 [Example 252, 1-(5-(9-((4-((R)-2-(((4-(3,8-diazabicyclo[3.2.1]octan-3-yl)-7-(8-ethynyl-7-fluoro-3-hydroxynaphthalen-1-yl)-8-fluoropyrido[4,3-d]pyrimidin-2-yl)oxy)methyl)-3-methylbutyl)piperazin-1-yl)methyl)-3-azaspiro[5.5]undecane-3-carbonyl)-2-methoxyphenyl)dihydropyrimidine-2,4(1H,3H)-dione]	42.3	100	31.7	21	51	18.9	–	–	–	–
[2H]C([2H])([2H])Oc1ccc(C(=O)N2CCC3(CCC(CN4CCN(C[C@@H](C)COc5nc(N6CC7CCC(C6)N7)c6cnc(-c7cc(O)cc8ccc(F)c(C#C)c78)c(F)c6n5)CC4)CC3)CC2)cc1N1CCC(=O)NC1=O [Example 253, 1-(5-(9-((4-((R)-3-((4-(3,8-diazabicyclo[3.2.1]octan-3-yl)-7-(8-ethynyl-7-fluoro-3-hydroxynaphthalen-1-yl)-8-fluoropyrido[4,3-d]pyrimidin-2-yl)oxy)-2-methylpropyl)piperazin-1-yl)methyl)-3-azaspiro[5.5]undecane-3-carbonyl)-2-(methoxy-d3)phenyl)dihydropyrimidine-2,4(1H,3H)-dione]	1.39	100	3.92	1.59	18.8	10.6	–	–	–	–

From patent publication US20260166159A1, “KRAS G12D DEGRADATION AGENT, AND PREPARATION METHOD AND USE THEREFOR” (LEADINGTAC PHARMACEUTICAL (SHAOXING) CO., LTD., priority 2022, published 2026)
